Data as given in patent publication US20250250230A1, “HETEROCYCLIC COMPOUND” (TAKEDA PHARMACEUTICAL COMPANY LIMITED, priority 2022, published 2025).

Target: T1, human orexin type 2 receptor (Homo sapiens, UniProt O43614)
T1 construct: expressed in transfected cells
T1 sequence (O43614 1-444): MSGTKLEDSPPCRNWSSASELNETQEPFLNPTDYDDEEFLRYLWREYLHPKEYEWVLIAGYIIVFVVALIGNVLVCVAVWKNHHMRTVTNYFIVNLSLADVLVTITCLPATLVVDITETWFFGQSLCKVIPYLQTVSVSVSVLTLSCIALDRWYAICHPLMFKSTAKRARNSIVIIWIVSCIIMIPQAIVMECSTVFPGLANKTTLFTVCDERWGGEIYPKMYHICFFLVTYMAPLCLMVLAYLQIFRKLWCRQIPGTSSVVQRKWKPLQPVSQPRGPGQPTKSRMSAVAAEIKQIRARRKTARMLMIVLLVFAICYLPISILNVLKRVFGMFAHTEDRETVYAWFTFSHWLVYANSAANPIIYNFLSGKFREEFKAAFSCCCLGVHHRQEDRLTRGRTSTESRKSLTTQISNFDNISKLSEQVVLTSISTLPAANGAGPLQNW
Test: Measurement of orexin type 2 receptor agonist activity (calcium fluorescence, Fluo-4 AM, FDSS)
Assay type: cell-based
Conditions: test compound 3 μM; CHO cells expressing human OX2 receptor; DMSO = 0%, orexin A (human) = 100%
Procedure, shortened: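 Agonist response scaled between vehicle (0%) and human orexin A at 10 nM final (100%), from 2-min kinetic Fluo-4 fluorescence reads. Stable hOX2R CHO-K1 clone, dye-loaded in HBSS/20 mM HEPES/0.1% BSA with 1.25 mM probenecid before compound addition.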

Row | Compound | OX2R agonist activity (3 μM, %)
1 | CS(=O)(=O)NC1CCCN(C(=O)C2CC2c2ccccc2-c2cccc(F)c2F)C1 (racemic) [Example 67, a mixture of rac-N-{(3R)-1-[(1R,2R)-2-(2′,3′-difluoro[1,1′-biphenyl]-2-yl)cyclopropane-1-carbonyl]piperidin-3-yl}methanesulfonamide and rac-N-{(3S)-1-[(1R,2R)-2-(2′,3′-difluoro[1,1′-biphenyl]-2-yl)cyclopropane-1-carbonyl]piperidin-3-yl}methanesulfonamide] | 89%
2 | CNS(=O)(=O)NC[C@@H]1CN(C(=O)[C@@H]2C[C@H]2c2ccccc2-c2c(F)cccc2F)CCO1 [Example 337, N-({(2S)-4-[(1R,2R)-2-(2′,6′-difluoro[1,1′-biphenyl]-2-yl)cyclopropane-1-carbonyl]morpholin-2-yl}methyl)-N′-methylsulfuric diamide] | 100%
3 | CS(=O)(=O)N[C@H]1CCN(C(=O)C2(F)CC2c2ccccc2-c2c(F)cccc2F)C1 (stereo partly drawn) [Example 324, N-{(3S)-1-[(1R,2R)-2-(2′,6′-difluoro[1,1′-biphenyl]-2-yl)-1-fluorocyclopropane-1-carbonyl]pyrrolidin-3-yl}methanesulfonamide, or N-{(3S)-1-[(1S,2S)-2-(2′,6′-difluoro[1,1′-biphenyl]-2-yl)-1-fluorocyclopropane-1-carbonyl]pyrrolidin-3-yl}methanesulfonamide] | 96%
4 | CS(=O)(=O)NCC1CCN(C(=O)C2CC2c2ccccc2-c2c(F)cccc2F)C1 (racemic) [Example 40, a mixture of rac-N-({(3R)-1-[(1R,2R)-2-(2′,6′-difluoro[1,1′-biphenyl]-2-yl)cyclopropane-1-carbonyl]pyrrolidin-3-yl}methyl)methanesulfonamide and rac-N-({(3S)-1-[(1R,2R)-2-(2′,6′-difluoro[1,1′-biphenyl]-2-yl)cyclopropane-1-carbonyl]pyrrolidin-3-yl}methyl)methanesulfonamide] | 77%
5 | CS(=O)(=O)NC1CN(C(=O)C2CC2c2ccccc2-c2c(F)cccc2F)CCC1(F)F (racemic) [Example 129, a mixture of rac-N-{(3R)-1-[(1R,2R)-2-(2′,6′-difluoro[1,1′-biphenyl]-2-yl)cyclopropane-1-carbonyl]-4,4-difluoropiperidin-3-yl}methanesulfonamide and rac-N-{(3S)-1-[(1R,2R)-2-(2′,6′-difluoro[1,1′-biphenyl]-2-yl)cyclopropane-1-carbonyl]-4,4-difluoropiperidin-3-yl}methanesulfonamide] | 101%
6 | O=C([C@@H]1C[C@H]1c1ccccc1-c1c(F)cccc1F)N1CC[C@H]1CNS(=O)(=O)N1CCC1 [Example 334, N-({(2S)-1-[(1R,2R)-2-(2′,6′-difluoro[1,1′-biphenyl]-2-yl)cyclopropane-1-carbonyl]azetidin-2-yl}methyl)azetidine-1-sulfonamide] | 96%
7 | CC1(NS(C)(=O)=O)CCCN(C(=O)[C@@H]2C[C@H]2c2ccccc2-c2c(F)cccc2F)C1 (mixture of isomers) [Example 310, a mixture of N-{(3R)-1-[(1R,2R)-2-(2′,6′-difluoro[1,1′-biphenyl]-2-yl)cyclopropane-1-carbonyl]-3-methylpiperidin-3-yl}methanesulfonamide and N-{(3S)-1-[(1R,2R)-2-(2′,6′-difluoro[1,1′-biphenyl]-2-yl)cyclopropane-1-carbonyl]-3-methylpiperidin-3-yl}methanesulfonamide] | 100%
8 | CCS(=O)(=O)N[C@H]1CCCN(C(=O)C2CC2c2ccccc2-c2c(F)cccc2F)C1 (stereo partly drawn) [Example 239, N-{(3S)-1-[(1R,2R)-2-(2′,6′-difluoro[1,1′-biphenyl]-2-yl)cyclopropane-1-carbonyl]piperidin-3-yl}ethanesulfonamide, or N-{(3S)-1-[(1S,2S)-2-(2′,6′-difluoro[1,1′-biphenyl]-2-cyclopropane-1-carbonyl]piperidin-3-yl}ethanesulfonamide] | 97%
9 | O=C(C1CC1c1ccccc1-c1c(F)cccc1F)N1CCCC(NS(=O)(=O)C2CC2)C1 (racemic) [Example 123, a mixture of rac-N-{(3R)-1-[(1R,2R)-2-(2′,6′-difluoro[1,1′-biphenyl]-2-yl)cyclopropane-1-carbonyl]piperidin-3-yl}cyclopropanesulfonamide and rac-N-{(3S)-1-[(1R,2R)-2-(2′,6′-difluoro[1,1′-biphenyl]-2-yl)cyclopropane-1-carbonyl]piperidin-3-yl}cyclopropanesulfonamide] | 100%
10 | CS(=O)(=O)NC1CCN(C(=O)C2CC2c2ccccc2-c2cccc(F)c2F)C1 (racemic) [Example 81, a mixture of rac-N-{(3R)-1-[(1R,2R)-2-(2′,3′-difluoro[1,1′-biphenyl]-2-yl)cyclopropane-1-carbonyl]pyrrolidin-3-yl}methanesulfonamide and rac-N-{(3S)-1-[(1R,2R)-2-(2′,3′-difluoro[1,1′-biphenyl]-2-yl)cyclopropane-1-carbonyl]pyrrolidin-3-yl}methanesulfonamide] | 70%
11 | Cc1cc(-c2c(F)cccc2F)c(C2CC2C(=O)N2CCCC(NS(C)(=O)=O)CC2)cn1 (racemic) [Example 266, a mixture of rac-N-[(4R)-1-{(1R,2R)-2-[4-(2,6-difluorophenyl)-6-methylpyridin-3-yl]cyclopropane-1-carbonyl}azepan-4-yl]methanesulfonamide and rac-N-[(4S)-1-{(1R,2R)-2-[4-(2,6-difluorophenyl)-6-methylpyridin-3-yl]cyclopropane-1-carbonyl}azepan-4-yl]methanesulfonamide] | 87%

More lines, now with the values ahead:

Row | OX2R agonist activity (3 μM, %) | Compound
12 | 91% | CCS(=O)(=O)NC[C@@H]1[C@H](F)CN1C(=O)C1CC1(F)c1ccc(F)cc1-c1ccccc1Cl (stereo partly drawn) [Example 440, N-({(2R,3R)-1-[(1R,2R)-2-(2′-chloro-5-fluoro[1,1′-biphenyl]-2-yl)-2-fluorocyclopropane-1-carbonyl]-3-fluoroazetidin-2-yl}methyl)ethanesulfonamide, or N-({(2R,3R)-1-[(1S,2S)-2-(2′-chloro-5-fluoro[1,1′-biphenyl]-2-yl)-2-fluorocyclopropane-1-carbonyl]-3-fluoroazetidin-2-yl}methyl)ethanesulfonamide]
13 | 79% | CC(NS(C)(=O)=O)[C@@H]1[C@H](C)CN1C(=O)[C@@H]1C[C@@]1(F)c1ccccc1-c1c(F)cccc1F (stereo partly drawn) [Example 401, N-[(1R)-1-{(2S,3R)-1-[(1S,2S)-2-(2′,6′-difluoro[1,1′-biphenyl]-2-yl)-2-fluorocyclopropane-1-carbonyl]-3-methylazetidin-2-yl}ethyl]methanesulfonamide, or N-[(1S)-1-{(2S,3R)-1-[(1S,2S)-2-(2′,6′-difluoro[1,1′-biphenyl]-2-yl)-2-fluorocyclopropane-1-carbonyl]-3-methylazetidin-2-yl}ethyl]methanesulfonamide]
14 | 90% | CCS(=O)(=O)NC[C@@H]1[C@H](F)CN1C(=O)C1CC1(F)c1ccccc1-c1ccccc1Cl (stereo partly drawn) [Example 441, N-({(2R,3R)-1-[(1R,2R)-2-(2′-chloro[1,1′-biphenyl]-2-yl)-2-fluorocyclopropane-1-carbonyl]-3-fluoroazetidin-2-yl}methyl)ethanesulfonamide, or N-({(2R,3R)-1-[(1S,2S)-2-(2′-chloro[1,1′-biphenyl]-2-yl)-2-fluorocyclopropane-1-carbonyl]-3-fluoroazetidin-2-yl}methyl)ethanesulfonamide]
15 | 97% | CS(=O)(=O)N[C@@H]1CN(C(=O)[C@@H]2C[C@@]2(F)c2ccccc2-c2c(F)cccc2F)CC[C@H]1O [Example 348, N-{(3R,4R)-1-[(1S,2S)-2-(2′,6′-difluoro[1,1′-biphenyl]-2-yl)-2-fluorocyclopropane-1-carbonyl]-4-hydroxypiperidin-3-yl}methanesulfonamide]
16 | 95% | CC1(NS(C)(=O)=O)CCN(C(=O)[C@@H]2C[C@@]2(F)c2ccccc2-c2c(F)cccc2F)C1 (stereo partly drawn) [Example 344, N-{(3R)-1-[(1S,2S)-2-(2′,6′-difluoro[1,1′-biphenyl]-2-yl)-2-fluorocyclopropane-1-carbonyl]-3-methylpyrrolidin-3-yl}methanesulfonamide, or N-{(3S)-1-[(1S,2S)-2-(2′,6′-difluoro[1,1′-biphenyl]-2-yl)-2-fluorocyclopropane-1-carbonyl]-3-methylpyrrolidin-3-yl}methanesulfonamide]
17 | 106% | CS(=O)(=O)NC(C1CC1)[C@@H]1CCN1C(=O)[C@@H]1C[C@@]1(F)c1ccccc1-c1c(F)cccc1F (stereo partly drawn) [Example 394, N-[(R)-cyclopropyl{(2S)-1-[(1S,2S)-2-(2′,6′-difluoro[1,1′-biphenyl]-2-yl)-2-fluorocyclopropane-1-carbonyl]azetidin-2-yl}methyl]methanesulfonamide, or N-[(S)-cyclopropyl{(2S)-1-[(1S,2S)-2-(2′,6′-difluoro[1,1′-biphenyl]-2-yl)-2-fluorocyclopropane-1-carbonyl]azetidin-2-yl}methyl]methanesulfonamide]
